This passage reports IC50 results from patent US9216968B2, “Heterocyclic derivative and pharmaceutical drug” (NIPPON SHINYAKU CO., LTD., priority 2011, dated 2015).

Where a name gives a salt, the structure may show the parent alone.

In one assay the target is human mPGES-1 (Homo sapiens (Human), UniProt O14684). The experiment in a line: mPGES-1 inhibiting activity (microsome fractions, PGE2 by HTRF). The class given is biochemical. Conditions: microsomes from CHO-K1 cells transfected with human mPGES-1; PGH2 1 μM, 4° C., 60 seconds; read-out: mPGES-1 Inhibition IC50. An outline of the steps:
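PGE2 formation read by HTRF after 60 s at 4 °C with 1 μM PGH2 substrate, following 20 min compound preincubation (1% DMSO) with human mPGES-1 microsomes from transfected CHO-K1 cells. Buffer: potassium phosphate, reduced glutathione, pH 7.4; IC50 from activity relative to enzyme-free blank.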
(In general: Time-resolved FRET reads energy transfer from a long-lived donor to a nearby acceptor.)

A further assay has as its system A549 cells. The experiment in a line: Inhibition of PGE2 production in A549 cell (IL-1β stimulated). Conditions: Homo sapiens, A549, 24 h, IL-1β 5 ng/well, PGE2 in culture medium. The format is cell-based, human. An outline of the steps: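 A549 cells preincubated 60 min with compound in RPMI/3% FBS (final DMSO 0.10), then stimulated with IL-1β (5 ng/well) for 24 h at 37 °C. PGE2 measured by HTRF and PGF2α by EIA in medium; IC50 from inhibition relative to stimulated minus unstimulated production.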

Chain of human mPGES-1 (O14684 whole entry): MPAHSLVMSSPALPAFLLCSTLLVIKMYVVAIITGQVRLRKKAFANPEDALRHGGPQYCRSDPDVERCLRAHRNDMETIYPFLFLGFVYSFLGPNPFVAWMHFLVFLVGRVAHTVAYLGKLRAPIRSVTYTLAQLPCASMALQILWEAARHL

Regarding `Cc1c(Cl)cccc1NC(=O)c1cc(NC(=O)c2ccccc2C(F)(F)F)cc2[nH]c(NCC(=O)OC(C)(C)C)nc12` [Example 160, tert-Butyl N-{4-[(3-chloro-2-methylphenyl)carbamoyl]-6-({[2-(trifluoromethyl)phenyl]carbonyl}amino)-1H-benzimidazol-2-yl}glycinate hydrochloride], the half-maximal inhibitory concentration (IC50) on human mPGES-1 amounted to 7.6 nM; in the assay on A549 cells, 71.6 nM.
For `Cc1c(Cl)cccc1NC(=O)c1cc(NC(=O)c2cc(Cl)ccc2Cl)cc2[nH]c(NCC(C)(C)CO)nc12` [Example 189, N-(3-Chloro-2-methylphenyl)-6-{[(2,5-dichlorophenyl)carbonyl]amino}-2-[(3-hydroxy-2,2-dimethylpropyl)amino]-1H-benzimidazole-4-carboxamide hydrochloride] the same measures were 1.4 nM and 24.5 nM.
For `COCCCc1ccc(Cl)c(C(=O)Nc2cc(C(=O)Nc3cccc(Cl)c3C)c3nc(COC)[nH]c3c2)c1` [Example 116, 6-({[2-Chloro-5-(3-methoxypropyl)phenyl]carbonyl}amino)-N-(3-chloro-2-methylphenyl)-2-(methoxymethyl)-1H-benzimidazole-4-carboxamide hydrochloride] the same measures were 9.7 nM and 252 nM.
As for `Cc1c(Cl)cccc1NC(=O)c1cc(NC(=O)c2cc(Cl)ccc2Cl)cc2[nH]c([C@H]3CCCO3)nc12` [Example 129, N-(3-Chloro-2-methylphenyl)-6-{[(2,5-dichlorophenyl)carbonyl]amino}-2-[(2R)-tetrahydrofuran-2-yl]-1H-benzimidazole-4-carboxamide hydrochloride], the half-inhibitory concentration (IC50) at human mPGES-1 was 59.4 nM; in the assay with A549 cells, 178 nM.
For `Cc1c(Cl)cccc1NC(=O)c1cc(NC(=O)c2ccccc2C(F)(F)F)cc2[nH]c(CC(N)=O)nc12` [Example 44, 2-(2-Amino-2-oxoethyl)-N-(3-chloro-2-methylphenyl)-6-({[2-(trifluoromethyl)phenyl]carbonyl}amino)-1H-benzimidazole-4-carboxamide hydrochloride], the IC50 was found to be 4.1 nM on human mPGES-1 and 1100 nM with A549 cells.
As to `Cc1c(Cl)cccc1NC(=O)c1cc(NC(=O)c2cc(Cl)ccc2Cl)cc2[nH]c(NCC(C)(C)O)nc12` [Example 191, N-(3-Chloro-2-methylphenyl)-6-{[(2,5-dichlorophenyl)carbonyl]amino}-2-[(2-hydroxy-2-methylpropyl)amino]-1H-benzimidazole-4-carboxamide hydrochloride], the IC50 on human mPGES-1 amounted to 3.9 nM; in the assay on A549 cells, 49.5 nM.
Turning to `Cc1c(Cl)cccc1NC(=O)c1cc(NC(=O)c2ccccc2C(F)(F)F)cc2[nH]cnc12` [Example 3, N-(3-Chloro-2-methylphenyl)-6-({[2-(trifluoromethyl)phenyl]carbonyl}mino)-1H-benzimidazole-4-carboxamide], the IC50 came to 1.5 nM at human mPGES-1 and 24.6 nM with A549 cells.
For `COCC(C)(C)CNc1nc2c(C(=O)Nc3cccc(Cl)c3C)cc(NC(=O)c3c(F)cccc3Cl)cc2[nH]1` [Example 196, 6-{[(2-Chloro-6-fluorophenyl)carbonyl]amino}-N-(3-chloro-2-methylphenyl)-2-[(3-methoxy-2,2-dimethylpropyl)amino]-1H-benzimidazole-4-carboxamide hydrochloride] the same measures were 6.5 nM and 35.9 nM.
The like results for `CSCCNc1nc2c(C(=O)Nc3cccc(Cl)c3C)cc(NC(=O)c3ccccc3C(F)(F)F)cc2[nH]1` [Example 178, N-(3-Chloro-2-methylphenyl)-2-{[2-(methylsulfanyl)ethyl]amino}-6-({[2-(trifluoromethyl)phenyl]carbonyl}amino)-1H-benzimidazole-4-carboxamide hydrochloride] were, in that order, 1.2 nM and 12.8 nM.
Take `COCc1nc2c(C(=O)Nc3cccc(Cl)c3C)cc(NC(=O)c3cc(Cl)ccc3Br)cc2[nH]1` [Example 107, 6-{[(2-Bromo-5-chlorophenyl)carbonyl]amino}-N-(3-chloro-2-methylphenyl)-2-(methoxymethyl)-1H-benzimidazole-4-carboxamide hydrochloride]: the IC50 at human mPGES-1 stood at 1.5 nM; in the assay on A549 cells, 42 nM.
For `COCc1nc2c(C(=O)Nc3cccc(Cl)c3C)cc(NC(=O)c3c(C)cccc3Cl)cc2[nH]1` [Example 104, N-(3-Chloro-2-methylphenyl)-6-{[(2-chloro-6-methylphenyl)carbonyl]amino}-2-(methoxymethyl)-1H-benzimidazole-4-carboxamide hydrochloride] the same measures were 2.9 nM and 71.1 nM.
Take `COCc1nc2c(C(=O)Nc3ccccc3OC)cc(NC(=O)c3ccccc3C(F)(F)F)cc2[nH]1` [Example 36, 2-(Methoxymethyl)-N-(2-methoxyphenyl)-6-({[2-(trifluoromethyl)phenyl]carbonyl}amino)-1H-benzimidazole-4-carboxamide]: the results for the IC50 on human mPGES-1 and in the assay on A549 cells were 147 nM and 234 nM, respectively.
As for `COCc1nc2c(C(=O)Nc3cccc(Cl)c3C)cc(NC(=O)c3c(F)ccc(F)c3Cl)cc2[nH]1` [Example 101, 6-{[(2-Chloro-3,6-difluorophenyl)carbonyl]amino}-N-(3-chloro-2-methylphenyl)-2-(methoxymethyl)-1H-benzimidazole-4-carboxamide hydrochloride], the IC50 at human mPGES-1 is 77.8 nM; in the assay on A549 cells, 118 nM.
As to `CNCc1nc2c(C(=O)Nc3cccc(Cl)c3C)cc(NC(=O)c3ccccc3C(F)(F)F)cc2[nH]1` [Example 62, N-(3-Chloro-2-methylphenyl)-2-[(methylamino)methyl]-6-({[2-(trifluoromethyl)phenyl]carbonyl}amino)-1H-benzimidazole-4-carboxamide dihydrochloride], the IC50 on human mPGES-1 amounted to 11 nM; in the assay on A549 cells it was 51.6 nM.
Turning to `COCc1nc2c(C(=O)Nc3ccc(C)cc3)cc(NC(=O)c3ccccc3C(F)(F)F)cc2[nH]1` [Example 23, 2-(Methoxymethyl)-N-(4-methylphenyl)-6-({[2-(trifluoromethyl)phenyl]carbonyl}amino)-1H-benzimidazole-4-carboxamide hydrochloride], the half-inhibitory concentration (IC50) is 7.2 nM on human mPGES-1 and 116 nM with A549 cells.
The like results for `COCc1nc2c(C(=O)Nc3cccc4ccccc34)cc(NC(=O)c3ccccc3C(F)(F)F)cc2[nH]1` [Example 219, 2-(Methoxymethyl)-N-(naphthalen-1-yl)-6-({[2-(trifluoromethyl)phenyl]carbonyl}amino)-1H-benzimidazole-4-carboxamide hydrochloride] were, in that order, 2 nM and 26 nM.
The like results for `COCc1nc2c(C(=O)Nc3cccc(Cl)c3C)cc(NC(=O)c3ccccc3C(F)(F)F)cc2n1C` [Example 90, N-(3-Chloro-2-methylphenyl)-2-(methoxymethyl)-1-methyl-6-({[2-(trifluoromethyl)phenyl]carbonyl}amino)-1H-benzimidazole-4-carboxamide] were, in that order, 118 nM and 348 nM.
With `Cc1c(Cl)cccc1NC(=O)c1cc(NC(=O)c2ccccc2C(F)(F)F)cc2[nH]c(NCCOC(C)C)nc12` [Example 175, N-(3-Chloro-2-methylphenyl)-2-{[2-(propan-2-yloxy)ethyl]amino}-6-({[2-(trifluoromethyl)phenyl]carbonyl}amino)-1H-benzimidazole-4-carboxamide hydrochloride], the IC50 at human mPGES-1 came to 3.6 nM; in the assay with A549 cells, 144 nM.
Take `COCc1nc2c(C(=O)Nc3cccc(Cl)c3C)cc(NC(=O)c3ncccc3F)cc2[nH]1` [Example 244, N-(3-Chloro-2-methylphenyl)-6-{[(3-fluoropyridin-2-yl)carbonyl]amino}-2-(methoxymethyl)-1H-benzimidazole-4-carboxamide hydrochloride]: the concentration for half-maximal inhibition (IC50) on human mPGES-1 was determined as 56.2 nM; in the assay on A549 cells it was 104 nM.
The like results for `Cc1c(Cl)cccc1NC(=O)c1cc(NC(=O)c2ccccc2C(F)(F)F)cc2[nH]c(N3CC(O)C3)nc12` [Example 148, N-(3-Chloro-2-methylphenyl)-2-(3-hydroxyazetidin-1-yl)-6-({[2-(trifluoromethyl)phenyl]carbonyl}amino)-1H-benzimidazole-4-carboxamide hydrochloride] were, in that order, 1.9 nM and 324 nM.
For `COCc1nc2c(C(=O)Nc3nc4ccc(Cl)cc4o3)cc(NC(=O)c3ccccc3C(F)(F)F)cc2[nH]1` [Example 233, N-(6-Chloro-1,3-benzoxazol-2-yl)-2-(methoxymethyl)-6-({[2-(trifluoromethyl)phenyl]carbonyl}amino)-1H-benzimidazole-4-carboxamide hydrochloride] the same measures were 2.5 nM and 195 nM.
Take `COC1CN(c2nc3c(C(=O)Nc4cccc(Cl)c4C)cc(NC(=O)c4ccccc4C(F)(F)F)cc3[nH]2)C1` [Example 166, N-(3-Chloro-2-methylphenyl)-2-(3-methoxyazetidin-1-yl)-6-({[2-(trifluoromethyl)phenyl]carbonyl}amino)-1H-benzimidazole-4-carboxamide hydrochloride]: the 50% inhibitory concentration (IC50) at human mPGES-1 stood at 3.2 nM; in the assay with A549 cells, 29 nM.
The like results for `Cc1c(Cl)cccc1NC(=O)c1cc(NC(=O)c2ccccc2C(F)(F)F)cc2[nH]c(N[C@H](CO)C(C)(C)C)nc12` [Example 172, N-(3-Chloro-2-methylphenyl)-2-{[(2S)-1-hydroxy-3,3-dimethylbutan-2-yl]amino}-6-({[2-(trifluoromethyl)phenyl]carbonyl}amino)-1H-benzimidazole-4-carboxamide hydrochloride] were, in that order, 4.5 nM and 134 nM.

The term IC50 denotes the concentration that gives 50% inhibition.
